Laboratory results published in patent publication EP1398031A1, “Use of 6-amino-quinoline-5,8-quinones and nucleic acids associated with senescence for the treatment of tumors” (Max-Planck-Gesellschaft zur Förderung der Wissenschaften …, priority 2002, dated 2004).

Assays:
HDF [1] = assay: cGMP assay (competitive immunoassay on cell lysates); assay type: cell-based; settings: Homo sapiens, 1 µM LY, 100 µM SNP for 2 hours, read-out: inhibition of the SNP-induced synthesis of cGMP
Description: Cells of early and late passages were seeded in equal numbers in 6-well plates. 24 hours later SNP (Sigma) was dissolved in complete medium and added to cells to a final concentration of 100 µM. Control cells received the same volume of drug-free medium. After 2 hours of incubation, medium was removed and cells were lysed by addition of 400 µl 0.1 M HCl per well for 10 minutes. cGMP concentration in lysates was determined using a specific competitive immunoassay according to the manufacturer's instructions (Sigma). A plate reader (LAMBDA E, MWG-Biotech) was used to detect the signal at 405 nm. Experiments were performed in triplicates with all samples measured twice.

HDF [2] = assay: proliferation assay (cell counting); assay type: cell-based
Description: (§1) Cells were seeded in equal numbers in 6-well plates the day before addition of LY in order to ensure uniform cell layers at the start of the experiments. Cells were treated in triplicates with daily exchange of medium containing drug or drug-free vehicle. For each time point cells were trypsinized and cell proliferation was assessed using a Z1 Counter (Coulter).

HDF [3] = assay: SA-β-gal staining and morphology; assay type: cell-based, human; settings: early passage HDF treated with LY
Description: Cells were fixed by incubation in 0.5 % glutaraldehyde in PBS for 5 minutes at room temperature and stained for SA-ß-galactosidase at pH 6.0 as described by Dimri et al., 1995.
(§2) For phase contrast and β-gal staining an Axiovert 25 microscope (Zeiss) equipped with a HyperHAD CCD camera (Sony) and ImageBase software (Kappa) was used. In vivo expression of histone-H2B-eGFP was documented with a Photometrics CooISNAP-HQ CCD camera (Roper Scientific) on an inverted Axiovert 200M microscope (Zeiss) using the Metamorph software (Universal Imaging).

HDF [4] = assay: FACS analysis of cell cycle after release from confluence; assay type: cell-based, human; settings: HDF synchronized by confluence, released by trypsinization; 1 µM LY, 24 and 36 hours
Description: (§3) Cell samples (both adherent and floating cells) were harvested by trypsinization, washed once with PBS and fixed in 70 % ethanol for > 2 hours on ice, washed once with PBS and incubated for 30 minutes at room temperature in staining solution containing 50 µg/ml of propidium iodide, 0.2 mg/ml of RNase A and 0.1 % (v/v) Triton X-100 in PBS. Quantification of apoptotic cells was performed using the Annexin V-FITC apoptosis detection kit (Becton Dickinson). Samples were analyzed with a FACScan unit (Becton Dickinson). 1×10^4 cells were analyzed for each assay. Quantitation was performed using single histogram statistics.

HDF [5] = assay: detection of DNA-synthesis (BrdU incorporation); assay type: cell-based, human; settings: 1 µM LY; synchronized HDF; 10 µM BrdU for 6 hours
Description: Cells were plated on cell locate glass grids (Eppendorf) and labeled for 6 hours using the 5'-bromo-2'-deoxy-uridine labelling and detection kit I (Roche Applied Sciences). After staining with a FITC-labeled anti-BrdU-antibody, positive cells were detected by fluorescence microscopy.

p53 protein in HDF = assay: Western blot analysis, p53; assay type: cell-based, human; settings: after treatment with LY
Description: (§4) Cells were lysed in a lysis buffer composed of 50 mM HEPES pH 7.5, 150 mM NaCl, 1 mM EGTA, 10 % glycerol, 1 % Triton X-100, 100 mM NaF, 10 mM Na4P2O7, 1 µM PMSF, and 1 µM Na3VO4. Protein concentration in whole lysates was determined using a Bradford assay (BioRad). 20 µg of lysates diluted with Laemmli-buffer were separated on 12 % SDS-polyacrylamide gels and transferred to Immobilon-P membranes (Millipore). For detection of pRb, separation was performed on a 7-12 % gradient gel. Antibodies against p53 (Pab 1801), p21 (c-19), p16 (c-20) and α-Tubulin (TU-02) were purchased from Santa Cruz Biotechnology. Anti-pRB antibodies (G3-245) were from BD PharMingen. Enhanced chemiluminescence generated by horse radish peroxidase-coupled secondary antibodies was detected with a CF440 imager (Kodak/Perkin Elmer).

p16INK4A in HDF = assay: Western blot analysis, p16; assay type: cell-based, human; settings: 48 hours of treatment with LY
Description: as §4

pRb in HDF = assay: Western blot analysis, pRb phosphorylation status; assay type: cell-based, human
Description: as §4

DLD1 = assay: proliferation assay (cell counting); assay type: cell-based, human; settings: after addition of LY
Description: as §1

HCT116 = assay: proliferation assay (cell counting); assay type: cell-based, human
Description: as §1

MCF7 = assay: proliferation assay (cell counting); assay type: cell-based, human; settings: after addition of LY
Description: as §1

[6] = test system: p21-deficient HCT116 colorectal cancer cells; assay: proliferation assay (cell counting); assay type: cell-based, human
Description: as §1

[7] = test system: p53-deficient HCT116 cells; assay: proliferation assay (cell counting); assay type: cell-based, human; settings: after LY addition
Description: as §1

[8] = test system: p21 protein in HCT116 cells; assay: Western blot analysis, p21; assay type: cell-based, human
Description: as §4

[9] = test system: p21 mRNA and protein of p53-/- HCT116; assay: Northern and Western blot analysis of p21; assay type: cell-based, human; settings: 1.5 µM LY
Description: (§5) RNA was isolated using the RNAgents kit (Promega). A Northern probe directed against the 3'-untranslated region of ELF1 α mRNA was generated by PCR using an EST as template and subsequent gel purification. The p21 probe corresponds to the open reading frame of p21. A probe corresponding to the 5'-region of sGC-β3 was amplified from HDF-cDNA and subcloned. Hybridizations were performed in QuickHyb, following the manufacturer's instructions (Stratagene).
as §4

[10] = test system: p16INK4A-deficient mouse embryo fibroblasts (MEF); assay: proliferation (data not shown); assay type: cell-based; settings: LY
Description: as §1

[11] = test system: NIH3T3-L1 cells expressing the K1-mutant; assay: proliferation assay (cell counting); assay type: cell-based, mouse; settings: 1.5 µM LY; most cells
Description: as §1

[12] = test system: NIH3T3-L1 cells expressing wildtype SV40 large T antigen; assay: proliferation assay, morphology and annexin V staining; assay type: cell-based, mouse; settings: 1.5 µM LY
Description: as §3, §1

HeLa = assay: cell death / apoptosis (histone H2B-eGFP chromatin morphology, sub-G1 flow cytometry); assay type: cell-based, human
Description: as §3, §2

HEK293 = assay: cell death (data not shown); assay type: cell-based, human; settings: treatment with LY, no arrest
[13] = test system: cdk-inhibitors p27 and p15; assay: induction of cdk-inhibitors (data not shown); assay type: cell-based; settings: LY-treatment
[14] = target: soluble guanylate cyclase; settings: competitive inhibitor of soluble guanylate cyclase; Fleisch et al., 1984; cited from earlier work
p21 mRNA in HDF = assay: Northern blot analysis of p21 mRNA; assay type: cell-based, human; settings: 0.2 µg/ml adriamycin
Description: as §5

SMILES: O=C1C(Nc2ccccc2)=CC(=O)c2ncccc21 [LY, 6-Anilino-quinoline-5,8-quinone]
- inhibition at 1 µM (HDF [1]): 60%
- inhibition at 0.25 µM (HDF [2]; Homo sapiens, HDF, 72 h, read-out: reduction in proliferation): 50%
- inhibition of proliferation (HDF [2]; early passage fibroblasts, 1 µM LY): completely inhibit proliferation
- proliferation after extended treatment (HDF [2]; treatment for 8 days): stable inhibition of proliferation
- toxicity after extended treatment (HDF [2]; treatment for 8 days): did not cause any obvious toxicity
- reversibility of inhibition of proliferation (HDF [2]; treatment period of more than 2 days, 1 µM LY): irreversible
- signs of senescence (morphology, SA-β-galactosidase) (HDF [3]): morphological changes characteristic of senescence and by SA-β-galactosidase staining at pH 6
- entry into S-phase (HDF [4]): almost completely blocked the entry into S-phase
- DNA synthesis as determined by BrdU incorporation (HDF [5]): complete inhibition of DNA synthesis
- level of p53 protein (p53 protein in HDF): did not increase
- induction of p16INK4A (p16INK4A in HDF): not induced
- ratio of phosphorylated to hypo-phosphorylated pRb (pRb in HDF; 6 hours after addition of LY): clearly shifted towards the hypo-phosphorylated form
- pRb phosphorylation status (pRb in HDF; 19 hours after addition of LY): almost completely hypo-phosphorylated
- cell proliferation (DLD1): complete cessation of cell proliferation
- cell proliferation (HCT116; after addition of LY): complete cessation of cell proliferation
- cell proliferation (HCT116; wild-type HCT116, after 5 days of LY treatment): complete cessation of proliferation
- cell proliferation (MCF7): complete cessation of cell proliferation
- cell-cycle inhibition ([6]; LY vs vehicle (DMSO)): resistant to cell-cycle inhibition
- cell proliferation ([6]; after 5 days of LY treatment): regained exponential proliferation
- cell proliferation [7]: complete block of proliferation
- p21 protein ([8]; 1.5 µM LY): induction of p21
- levels of p21 mRNA and protein [9]: induced with kinetics similar to those observed in HDF
- cell proliferation [10]: inhibited
- cell proliferation [11]: inhibition of proliferation
- cell fate [12]: underwent apoptosis
- chromatin morphology (HeLa; HeLa expressing histone H2B-eGFP, 2 µM LY for 48 hours): chromatin condensation
- cells with a sub-G1 DNA content (HeLa; HeLa treated for 60 hours with LY, flow-cytometry): substantial increase of cells with a sub-G1 DNA content
- cell fate (HeLa; treatment with LY, no arrest, data not shown): underwent cell death
- cell fate (HEK293): underwent cell death
- induction of p27 and p15 [13]: did not lead to induction
- IC50 [14]: 2000 nM

SMILES: COc1cccc2c1C(=O)c1c(O)c3c(c(O)c1C2=O)C[C@@](O)(C(=O)CO)C[C@@H]3O[C@H]1C[C@H](N)[C@H](O)[C@H](C)O1 [adriamycin]
- p21 mRNA (p21 mRNA in HDF): induction of p21 mRNA
- p21 protein ([8]; wildtype HCT116 only, adriamycin at 0.2 µg/ml for 8 hours): induction of p21 protein
